Tests used:
[1] = Stability (recovery experiment) of nitrification inhibitor on treated fertilizer granules; assay type: physicochemical; conditions: dose NI 1 % NH4N; for NI on fertilizer granules [%] after storage 4 weeks 20° C.: open beaker, 50% rH; for NI on fertilizer granules [%] initial: sample stored at -18° C.
Method: Examples 2 and 3 were further tested with regard to Comparative Example 1 in terms of their stability (recovery experiment)
Ammonium Sulphate Nitrate (ASN) fertilizer granules and Diammonium phosphate (DAP) fertilizer granules were treated with liquid preparations of the Nitrification Inhibitor (NI) of example 2 and 3 and Comparative Example 1.
For the recovery experiment, a small amount (˜10g) of each treated fertilizer sample was filled into a closed glass vial and stored at −18° C. Another 250 g of each treated fertilizer sample were filled into an open glass beaker and stored at 20° C. and 50% relative humidity (rH). After four weeks of storage, 50g of the samples stored at 20° C. and 50% rH were drawn from the bottom and analyzed by HPCL for NI content in comparison to the −18° C. sample. The recovery is given in % as ratio of the NI content of the 20° C. sample divided by the NI content of the −18° C. sample.

[2] = test system: nitrification (soil Limburgerhof, microbial biomass); assay: Comparison of % NH4-N recovery in soil incubation, data pooled from different trials; conditions: average pooled from different trials
Method: Examples 2 and 3 were further tested with regard to Comparative Example 1 in terms of the % NH4—N recovery. 100 g Soil (soil Limburgerhof with pH(CaCl2) 6.8; 73% sand, 23% silt, 4% clay, which is classified according to FAO as a sandy loam) is filled into 500 ml plastic bottles and is moistened to 50% water holding capacity. The soil is incubated at 20° C. for two weeks prior to the experiments to activate the microbial biomass. 1 ml Test solution, containing the compounds of formula I or the comparative example in the appropriate concentration (0.3 or 1% (w/w) of fertilized NH4—N), and 10 mg nitrogen in the form of ammoniumsulfate-N(NH4—N) is added to the soil and everything mixed well. Unfertilized controls received 1 ml pure water. Bottles are capped but loosely to allow air exchange. The bottles are then incubated at 20° C. for 14 days. For analysis, 300 ml of a 1% K2SO4-solution is added to the bottle containing the soil and shaken for 2 hours in a horizontal shaker at 150 rpm. Then the whole solution is filtered through a filter (Macherey-Nagel Filter MN 807%). Ammonium content is then analyzed in the filtrate using an autoanalyzer. Ammonium was quantified via an indophenol blue dye at 660 nm. The nitrification inhibition is expressed as % of NH4—N recovery from fertilized NH4—N (100%) after subtraction of unfertilized control soil. For comparison of the % NH4—N recovery of the compounds of the invention, i.e. Examples 2 and 3, with comparative example 1 as shown below from different trials, the standard deviation of a common treatment of all trials with DMPP (3,4-dimethylpyrazole phosphate) was calculated. Based on this calculation the data from different trials can be pooled together to calculate an average % NH4—N recovery for the compounds of the invention and the comparative compound as shown below.

[3] = test system: nitrification (soil Limburgerhof, microbial biomass); assay: Inhibition of nitrification in soil incubation (NH4-N recovery and NO3-N formation); conditions: 14 days after treatment, 20° C.
Method: The soil is incubated at 20° C. for two weeks prior to the experiments to activate the microbial biomass. 1 ml test solution, containing the compounds of formula I in the appropriate concentration (usually 0.3 or 1% (w/w) of fertilized NH4—N), and 10 mg nitrogen in the form of ammoniumsulfate-N(NH4—N) is added to the soil and everything mixed well. Unfertilized controls received 1 ml pure water. Bottles are capped but loosely to allow air exchange. The bottles are then incubated at 20° C. for 0 and 14 days. For analysis, 300 ml of a 1% K2SO4-solution is added to the bottle containing the soil and shaken for 2 hours in a horizontal shaker at 150 rpm. Then the whole solution is filtered through a filter (Macherey-Nagel Filter MN 807%). Ammonium and nitrate content is then analyzed in the filtrate using an autoanalyzer. Ammonium was quantified via an indophenol blue dye at 660 nm, and nitrate via an azo dye at 540 nm. The nitrification inhibition is expressed as % of NH4—N recovery from fertilized NH4—N (100%) after subtraction of unfertilized control soil, and as % inhibition of NO3—N formation (% reduction of NO3^− production) according to the formula: [formula]

[4] = Volatility of prior-art nitrification inhibitor; assay type: physicochemical; conditions: statement in words on the prior-art compound
Text: Sharma et al. (J P Sharma, H K Taneja, S S Tomar Pesticide Research Journal, 2006, 18(1), 7-11) inter alia discloses 3-ethoxy-5-methylpyrazole as nitrification inhibitor.

[5] = applied dose 0.3 wt.-% relative to NH4-N
[6] = applied dose 1.0 wt.-% relative to NH4-N

## CCCCCCCOC(=O)n1nc(OC)cc1C [Example 2]
[1]; DAP fertilizer granules
  NI on fertilizer granules [%] after storage 4 weeks 20° C.: 0.015%
  NI on fertilizer granules [%] initial: 0.023%
[2]; 0.3 wt.-% relative to NH4-N
  % NH4-N recovery after 14 days: 47%
[2]; 1 wt.-% relative to NH4-N
  % NH4-N recovery after 14 days: 58%
[3]; [5]
  average inhibition % of NO3 DAT14 (n = 4): 60%
  average recovery % NH4-N DAT14 (n = 4): 55%
[3]; [6]
  average inhibition % of NO3 DAT14 (n = 4): 89%
  average recovery % NH4-N DAT14 (n = 4): 66%

## CCOc1cc(C)nn1CO [Comparative Example 1, reference compound]
[1]; ASN fertilizer granules
  NI on fertilizer granules [%] after storage 4 weeks 20° C.: 0.000%
  NI on fertilizer granules [%] initial: 0.034%
[1]; DAP fertilizer granules
  NI on fertilizer granules [%] after storage 4 weeks 20° C.: 0.057%
  NI on fertilizer granules [%] initial: 0.110%
[2]; 0.3 wt.-% relative to NH4-N
  % NH4-N recovery after 14 days: 36%
[2]; 1 wt.-% relative to NH4-N
  % NH4-N recovery after 14 days: 46%

## COc1cc(C)n(C(=O)C2CCOCC2)n1 [Example 4]
[3]; [5]
  average inhibition % of NO3 DAT14 (n = 4): 33%
  average recovery % NH4-N DAT14 (n = 4): 40%
[3]; [6]
  average inhibition % of NO3 DAT14 (n = 4): 82%
  average recovery % NH4-N DAT14 (n = 4): 66%

## CCOC(=O)CC(=O)n1nc(OC)cc1C [Example 3]
[1]; ASN fertilizer granules
  NI on fertilizer granules [%] after storage 4 weeks 20° C.: 0.113%
  NI on fertilizer granules [%] initial: 0.116%
[1]; DAP fertilizer granules
  NI on fertilizer granules [%] after storage 4 weeks 20° C.: 0.044%
  NI on fertilizer granules [%] initial: 0.052%
[2]; 0.3 wt.-% relative to NH4-N
  % NH4-N recovery after 14 days: 41%
[2]; 1 wt.-% relative to NH4-N
  % NH4-N recovery after 14 days: 64%
[3]; [5]
  average inhibition % of NO3 DAT14 (n = 4): 60%
  average recovery % NH4-N DAT14 (n = 4): 49%
[3]; [6]
  average inhibition % of NO3 DAT14 (n = 4): 90%
  average recovery % NH4-N DAT14 (n = 4): 71%

## CCOc1cc(C)[nH]n1 [3-ethoxy-5-methylpyrazole]
[4]
  volatility: high volatility

## COc1cc(C)n(C(=O)c2cccc(F)c2)n1 [Example 5]
[3]; [5]
  average inhibition % of NO3 DAT14 (n = 4): 20%
  average recovery % NH4-N DAT14 (n = 4): 25%
[3]; [6]
  average inhibition % of NO3 DAT14 (n = 4): 50%
  average recovery % NH4-N DAT14 (n = 4): 39%

## CCCCCCCOC(=O)n1nc(C)cc1OC [Example 1]
[3]; [5]
  average inhibition % of NO3 DAT14 (n = 4): 44%
  average recovery % NH4-N DAT14 (n = 4): 40%
[3]; [6]
  average inhibition % of NO3 DAT14 (n = 4): 82%
  average recovery % NH4-N DAT14 (n = 4): 68%

From patent publication US20240270658A1, “Use of an N-Functionalized Alkoxy Pyrazole Compound as Nitrification Inhibitor” (BASF SE, priority 2021, published 2024)
